Reference: US10351594B2, “Process for preparing compounds having triple activities of thrombolysis, antithrombosis, and radical scavenging” (Shanghai Lumosa Therapeutics Co., Ltd., priority 2013, dated 2019)
Read-outs that look alike come from different tables or passages of the source.

System: stroke rats
[1] = 1 μmol/kg 5Ak after 4 hours from stroke onset, 1st day
[2] = 1 μmol/kg 5Ak after 4 hours from stroke onset, 2nd day
[3] = 1 μmol/kg 5Ak after 4 hours from stroke onset, 3rd day
[4] = 1 μmol/kg 5Ak after 4 hours from stroke onset, 4th day
[5] = 1 μmol/kg 5Ak after 4 hours from stroke onset, 5th day
[6] = 1 μmol/kg 5Ak after 4 hours from stroke onset, 6th day
[7] = 1 μmol/kg 5Ak after 6 hours from stroke onset, 1st day
[8] = 1 μmol/kg 5Ak after 6 hours from stroke onset, 2nd day
[9] = 1 μmol/kg 5Ak after 6 hours from stroke onset, 3rd day
[10] = 1 μmol/kg 5Ak after 6 hours from stroke onset, 4th day
[11] = 1 μmol/kg 5Ak after 6 hours from stroke onset, 5th day
[12] = 1 μmol/kg 5Ak after 6 hours from stroke onset, 6th day
[13] = 1 μmol/kg 5Ak after 24 hours from stroke onset, 1st day
[14] = 1 μmol/kg 5Ak after 24 hours from stroke onset, 2nd day
[15] = 1 μmol/kg 5Ak after 24 hours from stroke onset, 3rd day
[16] = 1 μmol/kg 5Ak after 24 hours from stroke onset, 4th day
[17] = 1 μmol/kg 5Ak after 24 hours from stroke onset, 5th day
[18] = 1 μmol/kg 5Ak after 24 hours from stroke onset, 6th day
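Also: male SD rats with thrombus-induced cerebral embolism via internal carotid artery, scored daily by Zealonga neurological deficit scale (0 no deficit to 5 death), lower score better.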

Description: The therapeutic effect was evaluated by neurological functional scores. The lower the score was, the better the therapeutic effect was. A 10% chloral hydrate solution was injected intraperitoneally into male SD rats at a dosage of 400 mg/kg body weight for anesthesia. A longitudinal incision was made at the center of the neck, and the right common carotid artery trunk was separated (about 3 cm in length). External carotid artery branches were each separated and ligated at the hyoid level, and the internal carotid artery was separated from the swollen part of the neck. The incision of the internal carotid artery and the proximal end of the common carotid artery were clipped respectively with noninvasive arterial clips, and the distal end of the external carotid artery was ligated. A catheter containing 0.5 mL thrombus suspension in normal saline was inserted in the external carotid artery trunk. When the clip on the internal carotid artery was released, the 0.5 mL thrombus suspension in normal saline in the catheter slowly flew from the external carotid artery to its proximal end, and then was injected into the arteries in brain through the internal carotid artery. Subsequently, the proximal end of the internal carotid artery was ligated, the arterial clips on the internal carotid artery and the common carotid artery were released, and blood flow was restored. After the wound was stitched up, 20,000 IU penicillin was intramuscularly injected for prevention from infection. […] Self-comparison was performed each day, and the neurological deficit degree was evaluated by the Zealonga method. A score of 0 indicated no sign of loss in neural function, 1 indicated the front limbs on the undamaged side could not stretch out, 2 indicated walking toward the undamaged side, 3 indicated tail-chasing walking in circles toward the undamaged side, 4 indicated involuntary walking with disturbance of consciousness, and 5 indicated death.

C[C@H](NC(=O)[C@@H]1CCCN1)C(=O)N[C@@H](CCCCN)C(=O)NCCCC[C@H](NC(=O)[C@@H]1Cc2cc(O)c(O)cc2C(C)(C)N1)C(=O)O [Compound 5Ak, 3S-6,7-dihydroxy-1,1-dimethyl-1,2,3,4-tetrahydro-isoquinoline-3-acyl-Lys(Pro-Ala-Lys)]
0: Daily neural function scores, number of rats under 4 scores [1] | Daily neural function scores, number of rats under 5 scores [1] | Daily neural function scores, number of rats under 3 scores [2] | Daily neural function scores, number of rats under 4 scores [2] | Daily neural function scores, number of rats under 5 scores [2] | Daily neural function scores, number of rats under 3 scores [3] | Daily neural function scores, number of rats under 4 scores [3] | Daily neural function scores, number of rats under 5 scores [3] | Daily neural function scores, number of rats under 3 scores [4] | Daily neural function scores, number of rats under 4 scores [4] | Daily neural function scores, number of rats under 5 scores [4] | Daily neural function scores, number of rats under 2 scores [5] | Daily neural function scores, number of rats under 3 scores [5] | Daily neural function scores, number of rats under 4 scores [5] | Daily neural function scores, number of rats under 5 scores [5] | Daily neural function scores, number of rats under 2 scores [6] | Daily neural function scores, number of rats under 3 scores [6] | Daily neural function scores, number of rats under 4 scores [6] | Daily neural function scores, number of rats under 5 scores [6] | Daily neural function scores, number of rats under 0 score [7] | Daily neural function scores, number of rats under 4 scores [7] | Daily neural function scores, number of rats under 5 scores [7] | Daily neural function scores, number of rats under 0 score [8] | Daily neural function scores, number of rats under 4 scores [8] | Daily neural function scores, number of rats under 5 scores [8] | Daily neural function scores, number of rats under 4 scores [9] | Daily neural function scores, number of rats under 5 scores [9] | Daily neural function scores, number of rats under 3 scores [10] | Daily neural function scores, number of rats under 4 scores [10] | Daily neural function scores, number of rats under 2 scores [11] | Daily neural function scores, number of rats under 3 scores [11] | Daily neural function scores, number of rats under 4 scores [11] | Daily neural function scores, number of rats under 5 scores [11] | Daily neural function scores, number of rats under 2 scores [12] | Daily neural function scores, number of rats under 3 scores [12] | Daily neural function scores, number of rats under 4 scores [12] | Daily neural function scores, number of rats under 5 scores [12] | Daily neural function scores, number of rats under 2 scores [13] | Daily neural function scores, number of rats under 5 scores [13] | Daily neural function scores, number of rats under 4 scores [14] | Daily neural function scores, number of rats under 5 scores [14] | Daily neural function scores, number of rats under 3 scores [15] | Daily neural function scores, number of rats under 4 scores [15] | Daily neural function scores, number of rats under 5 scores [15] | Daily neural function scores, number of rats under 3 scores [16] | Daily neural function scores, number of rats under 4 scores [16] | Daily neural function scores, number of rats under 5 scores [16] | Daily neural function scores, number of rats under 3 scores [17] | Daily neural function scores, number of rats under 4 scores [17] | Daily neural function scores, number of rats under 5 scores [17] | Daily neural function scores, number of rats under 3 scores [18] | Daily neural function scores, number of rats under 4 scores [18] | Daily neural function scores, number of rats under 5 scores [18]
8: Daily neural function scores, number of rats under 0 score [4] | Daily neural function scores, number of rats under 0 score [6]
no death occurred: rats that died during successive 6-day treatment (1 μmol/kg 5Ak once per day after 4 hours from stroke onset, ten rats) | rats that died during successive 6-day treatment (1 μmol/kg 5Ak once per day after 24 hours from stroke onset, 8 rats)
4: Daily neural function scores, number of rats under 1 score [2] | Daily neural function scores, number of rats under 1 score [5] | Daily neural function scores, number of rats under 1 score [7] | Daily neural function scores, number of rats under 2 scores [7] | Daily neural function scores, number of rats under 0 score [10] | Daily neural function scores, number of rats under 1 score [10] | Daily neural function scores, number of rats under 1 score [13] | Daily neural function scores, number of rats under 0 score [17] | Daily neural function scores, number of rats under 1 score [18]
2: Daily neural function scores, number of rats under 1 score [6] | Daily neural function scores, number of rats under 3 scores [7] | Daily neural function scores, number of rats under 2 scores [8] | Daily neural function scores, number of rats under 2 scores [9] | Daily neural function scores, number of rats under 1 score [11] | Daily neural function scores, number of rats under 3 scores [13] | Daily neural function scores, number of rats under 0 score [14] | Daily neural function scores, number of rats under 1 score [15] | Daily neural function scores, number of rats under 0 score [16]
1: Daily neural function scores, number of rats under 2 scores [1] | Daily neural function scores, number of rats under 3 scores [1] | Daily neural function scores, number of rats under 2 scores [2] | Daily neural function scores, number of rats under 2 scores [3] | Daily neural function scores, number of rats under 1 score [4] | Daily neural function scores, number of rats under 2 scores [4] | Daily neural function scores, number of rats under 3 scores [8] | Daily neural function scores, number of rats under 0 score [9] | Daily neural function scores, number of rats under 3 scores [9] | Daily neural function scores, number of rats under 2 scores [10] | Daily neural function scores, number of rats under 5 scores [10] | Daily neural function scores, number of rats under 0 score [13] | Daily neural function scores, number of rats under 4 scores [13] | Daily neural function scores, number of rats under 3 scores [14] | Daily neural function scores, number of rats under 2 scores [17] | Daily neural function scores, number of rats under 2 scores [18]
6: Daily neural function scores, number of rats under 1 score [3] | Daily neural function scores, number of rats under 0 score [5] | Daily neural function scores, number of rats under 1 score [9] | Daily neural function scores, number of rats under 0 score [12]
definite therapeutic effect: therapeutic effect, result in words (1 μmol/kg 5Ak after 4 hours from stroke onset) | therapeutic effect, result in words (1 μmol/kg 5Ak after 6 hours from stroke onset) | therapeutic effect, result in words (1 μmol/kg 5Ak after 24 hours from stroke onset)
5: Daily neural function scores, number of rats under 1 score [1] | Daily neural function scores, number of rats under 0 score [2]
one: rats that died during successive 6-day treatment (1 μmol/kg 5Ak once per day after 6 hours from stroke onset, n=10)
3: Daily neural function scores, number of rats under 0 score [1] | Daily neural function scores, number of rats under 0 score [3] | Daily neural function scores, number of rats under 1 score [12] | Daily neural function scores, number of rats under 1 score [14] | Daily neural function scores, number of rats under 2 scores [14] | Daily neural function scores, number of rats under 0 score [15] | Daily neural function scores, number of rats under 2 scores [15] | Daily neural function scores, number of rats under 1 score [16] | Daily neural function scores, number of rats under 2 scores [16] | Daily neural function scores, number of rats under 1 score [17] | Daily neural function scores, number of rats under 0 score [18]
7: Daily neural function scores, number of rats under 1 score [8] | Daily neural function scores, number of rats under 0 score [11]
